Reference: PubChem BioAssay (NCI)
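Tested at 5 concentrations; 48 h exposure; 96-well plates; endpoints linearly interpolated, else capped at highest concentration. Abbreviation: GI50, concentration required for 50% inhibition of growth. TGI: total growth inhibition.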

Experiments:
Assay in all cases: NCI-60 cell line screen, 48 h
[1] = tested on: 786-0 renal
[2] = tested on: A498 renal
[3] = tested on: A549 NSCLC
[4] = tested on: ACHN renal
[5] = tested on: BT-549 breast
[6] = tested on: CAKI-1 renal
[7] = tested on: CCRF-CEM leukemia
[8] = tested on: COLO 205 colon
[9] = tested on: DU-145 prostate
[10] = tested on: EKVX NSCLC
[11] = tested on: HCC-2998 colon
[12] = tested on: HCT-116 colon
[13] = tested on: HCT-15 colon
[14] = tested on: HL-60(TB) leukemia
[15] = tested on: HOP-62 NSCLC
[16] = tested on: HOP-92 NSCLC
[17] = tested on: HS 578T breast
[18] = tested on: HT29 colon
[19] = tested on: IGROV1 ovarian
[20] = tested on: K-562 leukemia
[21] = tested on: KM12 colon
[22] = tested on: LOX IMVI melanoma
[23] = tested on: M14 melanoma
[24] = tested on: MALME-3M melanoma
[25] = tested on: MCF7 breast
[26] = tested on: MDA-MB-231 breast
[27] = tested on: MDA-MB-435
[28] = tested on: MOLT-4 leukemia
[29] = tested on: NCI-H226 lung
[30] = tested on: NCI-H23 lung
[31] = tested on: NCI-H460 lung
[32] = tested on: NCI-H522 lung
[33] = tested on: NCI/ADR-RES ovarian
[34] = tested on: OVCAR-3 ovarian
[35] = tested on: OVCAR-4 ovarian
[36] = tested on: OVCAR-5 ovarian
[37] = tested on: OVCAR-8 ovarian
[38] = tested on: PC-3 prostate
[39] = tested on: RPMI-8226 leukemia
[40] = tested on: RXF 393 renal
[41] = tested on: SF-268 CNS
[42] = tested on: SF-295 CNS
[43] = tested on: SF-539 CNS
[44] = tested on: SK-MEL-2 melanoma
[45] = tested on: SK-MEL-28 melanoma
[46] = tested on: SK-MEL-5 melanoma
[47] = tested on: SK-OV-3 ovarian
[48] = tested on: SN12C renal
[49] = tested on: SNB-19 CNS
[50] = tested on: SNB-75 CNS
[51] = tested on: SR leukemia
[52] = tested on: SW-620 colon
[53] = tested on: T-47D breast
[54] = tested on: TK-10 renal
[55] = tested on: U251 CNS
[56] = tested on: UACC-257 melanoma
[57] = tested on: UACC-62 melanoma
[58] = tested on: UO-31 renal

c1ccc2c(-c3cnn4cc(-c5ccc(N6CCNCC6)cc5)cnc34)ccnc2c1
GI50 [1]: 527 nM
TGI [1]: 1030 nM
GI50 [2]: 1430 nM
TGI [2]: 2870 nM
GI50 [3]: 766 nM
TGI [3]: 1990 nM
GI50 [4]: 1090 nM
TGI [4]: 2290 nM
GI50 [5]: 1600 nM
TGI [5]: 3130 nM
GI50 [6]: 1350 nM
TGI [6]: 2770 nM
GI50 [7]: 196 nM
TGI [7]: 447 nM
GI50 [8]: 1420 nM
TGI [8]: 2810 nM
GI50 [9]: 739 nM
TGI [9]: 2060 nM
GI50 [10]: 1890 nM
TGI [10]: 3760 nM
GI50 [11]: 1360 nM
TGI [11]: 2740 nM
GI50 [12]: 313 nM
TGI [12]: 1190 nM
GI50 [13]: 325 nM
TGI [13]: 1450 nM
GI50 [14]: 461 nM
TGI [14]: 969 nM
GI50 [15]: 634 nM
TGI [15]: 1240 nM
GI50 [16]: 1590 nM
TGI [16]: 3030 nM
GI50 [17]: 1250 nM
TGI [17]: 2930 nM
GI50 [18]: 547 nM
TGI [18]: 1910 nM
GI50 [19]: 801 nM
TGI [19]: 2230 nM
GI50 [20]: 226 nM
TGI [20]: 696 nM
GI50 [21]: 1150 nM
TGI [21]: 2390 nM
GI50 [22]: 1270 nM
TGI [22]: 2580 nM
GI50 [23]: 297 nM
TGI [23]: 962 nM
GI50 [24]: 1340 nM
TGI [24]: 2920 nM
GI50 [25]: 429 nM
TGI [25]: 1700 nM
GI50 [26]: 1480 nM
TGI [26]: 3030 nM
GI50 [27]: 556 nM
TGI [27]: 1910 nM
GI50 [28]: 885 nM
TGI [28]: 2340 nM
GI50 [29]: 1650 nM
TGI [29]: 3590 nM
GI50 [30]: 1480 nM
TGI [30]: 3050 nM
GI50 [31]: 216 nM
TGI [31]: 525 nM
GI50 [32]: 1500 nM
TGI [32]: 2900 nM
GI50 [33]: 1720 nM
TGI [33]: 3420 nM
GI50 [34]: 1410 nM
TGI [34]: 2720 nM
GI50 [35]: 1500 nM
TGI [35]: 3430 nM
GI50 [36]: 806 nM
TGI [36]: 2240 nM
GI50 [37]: 1450 nM
TGI [37]: 3050 nM
GI50 [38]: 316 nM
TGI [38]: 1520 nM
GI50 [39]: 327 nM
TGI [39]: 931 nM
GI50 [40]: 1040 nM
TGI [40]: 2450 nM
GI50 [41]: 1430 nM
TGI [41]: 2800 nM
GI50 [42]: 1130 nM
TGI [42]: 2480 nM
GI50 [43]: 1310 nM
TGI [43]: 2600 nM
GI50 [44]: 1570 nM
TGI [44]: 2980 nM
GI50 [45]: 182 nM
TGI [45]: 350 nM
GI50 [46]: 1260 nM
TGI [46]: 2520 nM
GI50 [47]: 1380 nM
TGI [47]: 2710 nM
GI50 [48]: 1220 nM
TGI [48]: 2620 nM
GI50 [49]: 1250 nM
TGI [49]: 2560 nM
GI50 [50]: 441 nM
TGI [50]: 2120 nM
GI50 [51]: 153 nM
TGI [51]: 562 nM
GI50 [52]: 335 nM
TGI [52]: 1370 nM
GI50 [53]: 1420 nM
TGI [53]: 3200 nM
GI50 [54]: 1760 nM
TGI [54]: 3200 nM
GI50 [55]: 278 nM
TGI [55]: 1080 nM
GI50 [56]: 1750 nM
TGI [56]: 3290 nM
GI50 [57]: 1410 nM
TGI [57]: 2780 nM
GI50 [58]: 1190 nM
TGI [58]: 2430 nM

Cc1cccc(/C=C2/C(=O)Nc3ccccc32)n1
TGI [1]: 27300 nM
TGI [2]: 46900 nM
TGI [3]: > 85000 nM
TGI [4]: > 82100 nM
TGI [5]: 68600 nM
TGI [6]: 37800 nM
TGI [7]: > 85900 nM
TGI [8]: > 57000 nM
TGI [9]: 32900 nM
TGI [10]: 71900 nM
TGI [11]: 22400 nM
TGI [12]: 26200 nM
TGI [13]: > 68900 nM
TGI [14]: 39800 nM
TGI [15]: 33300 nM
TGI [16]: 31300 nM
TGI [17]: > 80100 nM
TGI [18]: > 100000 nM
GI50 [19]: 24400 nM
TGI [19]: > 100000 nM
TGI [20]: 40400 nM
TGI [21]: 35400 nM
TGI [22]: > 62600 nM
TGI [23]: 31200 nM
TGI [24]: 49100 nM
TGI [25]: 30300 nM
GI50 [26]: 11600 nM
TGI [26]: 34300 nM
TGI [27]: 60900 nM
TGI [28]: 44500 nM
GI50 [29]: 14600 nM
TGI [29]: 35900 nM
TGI [30]: 28900 nM
TGI [31]: > 81200 nM
TGI [32]: 34700 nM
TGI [33]: 53200 nM
TGI [34]: 39300 nM
TGI [35]: 56700 nM
TGI [36]: 27000 nM
TGI [37]: > 80300 nM
TGI [38]: > 60900 nM
TGI [39]: 46500 nM
TGI [40]: 27200 nM
TGI [41]: 42500 nM
TGI [42]: 54400 nM
TGI [43]: 51400 nM
TGI [44]: 36400 nM
TGI [45]: > 100000 nM
TGI [46]: 26300 nM
TGI [47]: 52000 nM
TGI [48]: 37900 nM
TGI [49]: > 58900 nM
TGI [50]: > 100000 nM
GI50 [51]: 2110 nM
TGI [51]: 7300 nM
TGI [52]: 49700 nM
TGI [53]: 34200 nM
TGI [54]: 33700 nM
TGI [55]: > 65900 nM
TGI [56]: 30100 nM
GI50 [57]: 10200 nM
TGI [57]: 25800 nM
TGI [58]: 30100 nM
